The text below walks through data of patent publication US8729074B2, “Inhibitors of PI3 kinase” (Amgen Inc., priority 2009, dated 2014).

This test relates to phosphorylation of Serine 473 in Akt in HCT 116 cells. Description: Cell-based phospho-Akt Ser473 assay (HCT 116 cell). Particulars: Homo sapiens; pAkt Ser473, HCT 116 cells, compound 2 hours, IGF-1 stimulation; average if run more than once; read-out: HCT116 Cell IC50. The text has this:
Cell-Based Phospho-Akt Ser473Assay (HCT 116 Cell)
This assay determines the ability of a compound to inhibit the phosphorylation of Serine 473 in Akt using a MSD based sandwich immunoassay (Meso Scale Detection, Meso Scale Discovery (MSD), Gaithersburg, Md.). HCT 116 human colon carcinoma cell lines can be grown in McCoy's 5A growth medium (GIBCO, Carlsbad, Calif.) containing 10% FBS (GIBCO, Carlsbad, Calif.) and X1 Penicillin-streptomycin-glutamine (GIBCO, Carlsbad, Calif.). Prior to the assay, cells can be detached from the culture flask with trypsin, and re-suspended in complete media to give a final concentration of 1.6×10^5 cells per mL. Aliquots (100 μl) of the HCT116 cell suspension can be seeded into each well of a 96 well tissue culture plate to give a final density of 16,000 cells per well. Cells can then be incubated overnight at 37° C.
The following day the cells can be treated with serially diluted test compounds and incubated for 2 hours at 37° C. The culture media on the HCT 116 cells can be replaced with 189 μL McCoys media, supplemented with 0.1% BSA (ICN Biomedicals, Inc., Costa Mesa, Calif.). Compounds can be prepared as either 10 mM or 0.5 mM stock solutions in DMSO, and serially diluted 3 fold in a 10-point dose-response curve to give final concentrations that are 200-fold greater than the desired final test concentration. […]
25 μL Cell lysate can then be transferred to pre-blocked MSD assay plates pre-coated with a capture antibody specific for Akt, and the plates can be incubated for 2 hours at room temperature. […] An aliquot of 150 μL of diluted MSD read buffer can then be applied to each well, and the electrochemiluminescent signal can be measured using a MSD SECTOR™ plate reader (Meso Scale Discovery, Gaithersburg, Md.). This instrument measures the intensity of emitted light to determine a quantitative measure of phosphorylated Akt in each well. The dose-response data obtained with each compound can be analyzed and the IC50 inhibition of Akt phosphorylation at Ser473 can be calculated. […]
As to `Cc1ccn2c(-c3cnc(Cl)c(NS(=O)(=O)c4ccc(F)cc4)c3)cnc2c1` [Example 4, N-(2-Chloro-5-(7-methylimidazo[1,2-a]pyridin-3-yl)-3-pyridinyl)-4-fluorobenzenesulfonamide], the IC50 (in general, the concentration that gives 50% inhibition) was found to be 180 nM. As to `O=S(=O)(Nc1cc(-c2cnc3ccccn23)cnc1Cl)c1ccc(F)cc1` [Example 3, N-(2-Chloro-5-imidazo[1,2-a]pyridin-3-yl-3-pyridinyl)-4-fluorobenzenesulfonamide], the half-inhibitory concentration (IC50) worked out at 352 nM. As for `O=S(=O)(Nc1cc(-c2cnc3ccc(Cl)nn23)cnc1Cl)c1ccc(F)cc1` [Example 25, N-(2-Chloro-5-(6-chloroimidazo[1,2-b]pyridazin-3-yl)pyridin-3-yl)-4-fluorobenzenesulfonamide], the IC50 was 564 nM.
